Test results published in patent publication US8268786B2, “Anti-cancer tocotrienol analogues and associated methods” (First Tech International Limited, priority 2009, dated 2012).
Like-named read-outs stand apart in the source and are kept apart here.

How the values were obtained:
[1] = tested on: ER-positive human breast cancer cells MCF7; assay: MTT antiproliferative assay, MCF7 cells; type: cell-based; details: for antiproliferative activity (in words) / potency relative to parent natural tocotrienol: MCF7; for potency relative to parent natural tocotrienol: 4 and 10 versus Compound 1, 8 versus Compound 2
Experimental: (§1) For each of the assays performed the compounds were dissolved in aqueous culture media by binding the compounds with bovine serum albumin (BSA).
(§2) An amount of each compound appropriate for the desired final compound concentration was placed in a 1.5 mL screw top glass vial and dissolved in 100 μL of 100% ethanol. Once dissolved, this ethanol/compound solution was added to a small volume of sterile 10% BSA in water and incubated overnight at 37° C. […] Ethanol was added to all treatment media such that the final ethanol concentration was the same in all treatment groups within a given experiment and was always less than 0.1%. Although the examples provided have been described in conjunction with specified amounts of ethanol and other compounds it should be understood that the invention is applicable to embodiments not having those limited concentration.
(§3) The cell growth of MCF7 (Example 24) and MDA-MB-231 (Example 25) cell lines was measured using the MTT assay procedures described above and an MTT assay kit (TACS™, Trevogen®, Inc., Gaithersburg, Md.). After passing the cells for 3-4 times, growing cells were incubated in a 96-well plate at a density of 8×10^3 cells per well, and allowed to attach for 24 hours. Complete growth medium was then replaced with 100 μL of RPMI serum free medium (GIBCO-Invitrogen, NY) containing various doses (20, 10, 5, 2 μM) of the tested compound and the culture continued at 37° C. under 5% CO2. After 96 hours, the incubated cells were treated with MTT solution (10 μL/well) at 37° C. for 4 hours. The color reaction was stopped by the addition of solubilization/stop solution (100 μL/well). The cells continued to be incubated at 37° C. to completely dissolve the formazan product. Absorbance of the samples was determined at 570 nm with an ELISA plate reader (BioTek, VT). Absorbance readings were converted to estimated cell numbers based on a standard curve prepared by plating various concentration of cells, as determined by hemocytometer, and measuring the absorbance of those cells at the start of each experiment. The IC50 value of each compound was calculated using nonlinear regression (curve fit) of log concentration versus the number of cells/well implemented using GraphPad Prism 5.0 program. The procedure was identical for both human breast cancer cell lines MCF7 and MDA-MB-231.

[2] = tested on: ER-negative human breast cancer cells MDA-MB-231; assay: MTT antiproliferative assay, MDA-MB-231 cells; type: cell-based; details: for antiproliferative activity (in words): MDA-MB-231
Experimental: as §1, §2, §3

[3] = tested on: highly metastatic breast cancer cell line MDA-MB-231; assay: BME Cell Invasion Assay (Boyden chamber, calcein-AM); type: cell-based, human; details: for anti-invasive activity (in words): MDA-MB-231, 5 μM
Experimental: Anti-Invasion Assays were performed to measure the anti-invasive properties of Compounds 1-21 using a 96 well basement membrane extract “BME” Cell Invasion Assay (Cultrex®, Trevogen, Catalog# 3455-096-K) with the highly metastatic breast cancer cell line MDA-MB-231. This assay employs a simplified Boyden Chamber design with a polyethylene terephthalate membrane (8 μm). Detection of cell invasion is quantified using calcein-AM. Cells internalize calcein-AM and intracellular esterases cleave the acetomethylester moiety to generate free calcein. Free calcein fluoresces brightly, and this fluorescence may be used to quantify the number of cells that have invaded across BME. (See Tamilarasan and Borghesani, referenced above)
About […] of basement membrane extract (BME, 1×) coat was added per well. After overnight incubation at 37° C. in a 5% CO2 incubator, 50,000/50 μL of MDA-MB-231 cells in serum free RPMI medium were added to the top chamber of each well, which contained the tested compound at a treatment concentration of 5 μM. About 150 μL of RPMI medium was added to the lower chamber, which contained 10% fetal bovine serum, penicillin/streptomycin, and fibronectin (1 μL/mL) and N-formyl-met-leu-phe (10 nM) as chemoattractants. Cells were allowed to migrate to the lower chamber at 37° C. in a CO2 incubator. After 24 h, the top and bottom chambers were aspirated and washed with a washing buffer solution. About 100 μL of cell dissociation solution/Calcein-AM solution was added to the bottom chamber and incubated for 1 hour at 37° C. in a CO2 incubator. The cells internalized calcein-AM, and the intracellular esterases cleaved the acetomethylester (AM) moiety to generate free calcein. Fluorescence of the samples was determined at 485 nm excitation; 520 nm emissions were measured using a plate reader (BioTek, VT). The numbers of cells that invaded through the BME coat were calculated using a standard curve.
Differences among the various treatment groups were determined by analysis of variance (ANOVA) followed by Dunnett's t-test. Differences were considered to be statistically significant at a value of <0.05, as compared to vehicle treated controls.

[4] = 96 hours, serum free medium, calculated by nonlinear regression, read-out: MCF7 IC50
[5] = 96 hours, serum free medium, calculated by nonlinear regression, read-out: MDA-MB-231 IC50
[6] = Homo sapiens, MCF7, 96 h, read-out: MCF7 IC50 μM
[7] = Homo sapiens, MDA-MB-231, 96 h, read-out: MDA-MB-231 IC50 μM

| Compound | IC50 [1, 4] | IC50 [2, 5] | IC50 [1, 6] | IC50 [2, 7] | further results |
| --- | --- | --- | --- | --- | --- |
| CC(C)=CCC/C(C)=C/CC/C(C)=C/CC[C@]1(C)CCc2cc(O)cc(C)c2O1 [Compound 3, δ-tocotrienol, reference compound] | 15.5 µM | > 10 µM | – | – | – |
| CC(C)=CCC/C(C)=C/CC/C(C)=C/CC[C@]1(C)CCc2cc(OC(=O)NS(=O)(=O)c3ccc(Cl)cc3)cc(C)c2O1 [Compound 12, (R)-2,8-dimethyl-2-((3E,7E)-4,8,12-trimethyltrideca-3,7,11-trienyl)chroman-6-yl 4-chlorophenylsulfonylcarbamate] | – | – | > 10 µM | > 10 µM | – |
| CC(C)=CCC/C(C)=C/CC/C(C)=C/CC[C@]1(C)CCc2cc(OC(=O)NCc3ccccc3)cc(C)c2O1 [Compound 18, (R)-2,8-dimethyl-2-((3E,7E) 4,8,12-trimethyltrideca-3,7,11-trienyl)chroman-6-yl benzylcarbamate] | – | – | > 10 µM | > 10 µM | – |
| CC(C)=CCC/C(C)=C/CC/C(C)=C/CCC1(C)CCc2cc(OC(=O)NS(=O)(=O)c3ccccc3)cc(C)c2O1 (centres unmarked) [Compound 6, 2,8-dimethyl-2-((3E,7E)-4,8,12-trimethyltrideca-3,7,11-trienyl)chroman-6-ylphenylsulfonylcarbamate] | 6.1 µM | > 10 µM | – | – | antiproliferative activity (in words) [1]: activities greater than the natural tocotrienols from which they were derived |
| CC(C)=CCC/C(C)=C/CC/C(C)=C/CC[C@]1(C)CCc2c(C)c(OC(=O)Nc3ccccc3)c(C)c(C)c2O1 [Compound 13, (R)-2,5,7,8-tetramethyl-2-((3E,7E)-4,8,12-trimethyltrideca-3,7,11-trienyl)chroman-6-yl phenylcarbamate] | – | – | > 20 µM | > 10 µM | antiproliferative activity (in words) [2]: improved activities; anti-invasive activity (in words) [3]: more active than their natural tocotrienol parent compounds |
| CC(C)=CCC/C(C)=C/CC/C(C)=C/CC[C@]1(C)CCc2cc(O)c(C)c(C)c2O1 [Compound 2, γ-tocotrienol, reference compound] | 11.4 µM | > 10 µM | – | – | – |
| CC(C)=CCC/C(C)=C/CC/C(C)=C/CC[C@]1(C)CCc2cc(OC(=O)Nc3ccccc3)c(C)c(C)c2O1 [Compound 14, (R)-2,7,8-trimethyl-2-((3E,7E)-4,8,12-trimethyltrideca-3,7,11-trienyl)chroman-6-yl phenylcarbamate] | – | – | > 10 µM | > 10 µM | – |
| CC(C)=CCC/C(C)=C/CC/C(C)=C/CC[C@]1(C)CCc2c(C)c(OC(=O)NCc3ccccc3)c(C)c(C)c2O1 [Compound 16, (R)-2,5,7,8-tetramethyl-2-((3E,7E)-4,8,12-trimethyltrideca-3,7,11-trienyl)chroman-6-yl benzylcarbamate] | – | – | > 20 µM | 7.2 µM | antiproliferative activity (in words) [2]: improved activities; MDA-MB-231 cells invasion ([3]; 5 μM, 24 h): 8%; anti-invasive activity (in words) [3]: more active than their natural tocotrienol parent compounds |
| CC(C)=CCC/C(C)=C/CC/C(C)=C/CC[C@]1(C)CCc2c(C)c(OC(=O)NS(=O)(=O)c3ccc(Cl)cc3)c(C)c(C)c2O1 [Compound 10, (R)-2,5,7,8-tetramethyl-2-((3E,7E)-4,8,12-trimethyltrideca-3,7,11-trienyl)chroman-6-yl 4-chlorophenylsulfonylcarbamate] | – | – | 2.4 µM | > 10 µM | potency relative to parent natural tocotrienol [1]: 8 fold |
| CC(C)=CCC/C(C)=C/CC/C(C)=C/CC[C@]1(C)CCc2c(C)c(OC(=O)NS(=O)(=O)c3ccc(C)cc3)c(C)c(C)c2O1 [Compound 7, (R)-2,5,7,8-tetramethyl-2-((3E,7E)-4,8,12-trimethyltrideca-3,7,11-trienyl)chroman-6-yl tosylcarbamate] | – | – | 6.1 µM | > 10 µM | antiproliferative activity (in words) [1]: activities greater than the natural tocotrienols from which they were derived |
| CC(C)=CCC/C(C)=C/CC/C(C)=C/CC[C@]1(C)CCc2cc(OC(=O)Nc3ccccc3)cc(C)c2O1 [Compound 15, (R)-2,8-dimethyl-2-((3E,7E)-4,8,12-trimethyltrideca-3,7,11-trienyl)chroman-6-yl phenylcarbamate] | – | – | > 10 µM | > 10 µM | – |
| CC(C)=CCC/C(C)=C/CC/C(C)=C/CCC1(C)CCc2c(C)c(OC(=O)NS(=O)(=O)c3ccccc3)c(C)c(C)c2O1 (centres unmarked) [Compound 4, 2,5,7,8-tetramethyl-2-((3E,7E)-4,8,12-trimethyltrideca-3,7,11-trienyl)chroman-6-ylphenylsulfonylcarbamate] | 4.5 µM | > 10 µM | – | – | potency relative to parent natural tocotrienol [1]: 8 fold |
| CC(C)=CCC/C(C)=C/CC/C(C)=C/CC[C@]1(C)CCc2cc(OC(=O)NC(=O)c3ccccc3)c(C)c(C)c2O1 [Compound 20, (R)-2,7,8-trimethyl-2-((3E,7E)-4,8,12-trimethyltrideca-3,7,11-trienyl)chroman-6-yl benzoylcarbamate] | – | – | > 10 µM | – | – |
| CC(C)=CCC/C(C)=C/CC/C(C)=C/CC[C@]1(C)CCc2cc(OC(=O)NCc3ccccc3)c(C)c(C)c2O1 [Compound 17, (R)-2,7,8-trimethyl-2-((3E,7E)-4,8,12-trimethyltrideca-3,7,11-trienyl)chroman-6-yl benzylcarbamate] | – | – | > 10 µM | > 10 µM | antiproliferative activity (in words) [2]: improved activities; anti-invasive activity (in words) [3]: more active than their natural tocotrienol parent compounds |
| CC(C)=CCC/C(C)=C/CC/C(C)=C/CC[C@]1(C)CCc2c(C)c(OC(=O)NC(=O)c3ccccc3)c(C)c(C)c2O1 [Compound 19, (R)-2,5,7,8-tetramethyl-2-((3E,7E)-4,8,12-trimethyltrideca-3,7,11-trienyl)chroman-6-yl benzoylcarbamate] | – | – | > 20 µM | > 10 µM | – |
| CC(C)=CCC/C(C)=C/CC/C(C)=C/CC[C@]1(C)CCc2c(C)c(O)c(C)c(C)c2O1 [Compound 1, α-tocotrienol, reference compound] | > 20 µM | > 10 µM | – | – | – |
| CC(C)=CCC/C(C)=C/CC/C(C)=C/CCC1(C)CCc2cc(OC(=O)NS(=O)(=O)c3ccccc3)c(C)c(C)c2O1 (centres unmarked) [Compound 5, 2,7,8-trimethyl-2-((3E,7E)-4,8,12-trimethyltrideca-3,7,11-trienyl)chroman-6-ylphenylsulfonylcarbamate] | > 10 µM | > 10 µM | – | – | – |
| CC(C)=CCC/C(C)=C/CC/C(C)=C/CC[C@]1(C)CCc2cc(OC(=O)NC(=O)c3ccccc3)cc(C)c2O1 [Compound 21, (R)-2,8-dimethyl-2-((3E,7E)-4,8,12-trimethyltrideca-3,7,11-trienyl)chroman-6-yl benzoylcarbamate] | – | – | 5.6 µM | – | – |
| CC(C)=CCC/C(C)=C/CC/C(C)=C/CC[C@]1(C)CCc2cc(OC(=O)NS(=O)(=O)c3ccc(Cl)cc3)c(C)c(C)c2O1 [Compound 11, (R)-2,7,8-trimethyl-2-((3E,7E)-4,8,12-trimethyltrideca-3,7,11-trienyl)chroman-6-yl 4-chlorophenylsulfonylcarbamate] | – | – | > 10 µM | > 10 µM | – |
